These results are taken from patent publication US20140066394A1, “Substituted 6-(Benzylamino) Purine Riboside Derivatives, Use Thereof and Compositions Containing These Derivatives” (Biopatterns, S.R.O, priority 2009, published 2014).

The structures appear in SMILES notation.

Assay [1] has as its system human skin melanoma G-361. The assay can be described thus: In vitro cytotoxicity, Calcein AM assay, G-361. Format: cell-based. The conditions noted are these: 72 hours. From the text: (§1) Low cytotoxicity of the compounds is the major property determining the cosmetic use. One of the parameters used, as the basis for cytotoxicity assays, is the metabolic activity of viable cells. For example, a microtiter assay, which uses the Calcein AM, is now widely used to quantitate cell proliferation and cytotoxicity. For instance, this assay is used in drug screening programs and in chemosensitivity testing. Because only metabolically active cells cleave Calcein AM, these assays detect viable cells exclusively. The quantity of […] Calcein AM corresponds to the number of vital cells in the culture.
(§2) Human T-lymphoblastic leukemia cell line CEM; promyelocytic HL-60 and monocytic U937 leukemias; breast carcinoma cell lines MCF-7, BT549, MDA-MB-231; glioblastoma U87MG cells; cervical carcinoma cells HELA; sarcoma cells U2OS and Saos2; hepatocellular carcinoma HepG2; mouse fibroblasts NIH3T3; mouse immortalized bone marrow macrophages B2.4 and B10A.4; P388D1 and L1210 leukemia; B16 and B16F10 melanomas; human osteosarcoma HOS; human myeloid leukemia K-562; human skin melanoma G-361 were used for routine screening of compounds. The cells were maintained in Nunc/Corning 80 cm^2 plastic tissue culture flasks and cultured in cell culture medium (DMEM with 5 g/l glucose, 2 mM glutamine, 100 U/mL penicillin, 100 μg/mL streptomycin, 10% fetal calf serum and sodium bicarbonate).
(§3) The cell suspensions that were prepared and diluted according to the particular cell type and the expected target cell density (2.500-30.000 cells per well based on cell growth characteristics) were added by pipette ([…]) into 96/well microtiter plates. Inoculates were allowed a pre-incubation period of 24 hours at 37° C. and 5% CO2 for stabilisation. Four-fold dilutions of the intended test concentration were added at time zero in 20 μl aliquots to the microtiter plate wells. Usually, the compound tested was evaluated at six 4-fold dilutions. In routine testing, the highest well concentration was 100 μM, but it can be the matter of change dependent on the agent. All drug concentrations were examined in duplicates. Incubations of cells with the tested compounds lasted for 72 hours at 37° C., in 5% CO2 atmosphere and 100% humidity. At the end of the incubation period, the cells were assayed by using Calcein AM. Ten microliters of the stock solution were pipetted into each well and incubated for 1 hour. Fluorescence (FD) was measured with the Labsystem FIA Reader Fluoroscan Ascent (UK). The tumour cell survival (GI50) was calculated using the following equitation: TCS=(FDdrug exposed well/mean FDeontrol wells)×100%. The GI50 value, the drug concentration lethal to 50% of the tumour cells, was calculated from the obtained dose response curves.
(§4) Zero cytotoxicity of the novel compounds is the basic prerequisite for agricultural and tumor-unrelated applications. The cytoxicity of the novel compounds was tested on a panel of cell lines of different histogenetic and species origin (Table 9). We show herein that equal activities were found in all tumour cell lines tested, however, the non-malignant cells, e.g. NIH3T3 fibroblasts and normal human lymphocytes, were resistant to 2,6-disubstituted purine ribosides induced cytotoxicity. The compounds listed in Tab. 9 can be divided into 2 groups. The first group contains “classical cytokinins” represented by 6-substituted purine ribosides (which are known in the prior art). The second group contains the novel 2,6-disubstituted derivatives of these compounds. […] GI50 for NIH3T3 fibroblasts and normal human lymphocytes was always higher than 100 μM. The novel derivatives show no toxicity to normal and tumour cells in concentrations about 100 μM and thus are more suitable for agricultural applications than “classical cytokinins” (6-substituted purine riboside derivatives).

Another assay relates to human osteosarcoma HOS. The assay can be described thus: In vitro cytotoxicity, Calcein AM assay, HOS. Format: cell-based. The conditions noted are these: 72 hours.
Source text: as §1, §2, §3, §4

Assay [2] has as its system breast carcinoma cell line MCF-7. The assay is described as follows: In vitro cytotoxicity, Calcein AM assay, MCF7. In kind it is cell-based, human. Particulars: 72 hours.
Source text: as §1, §2, §3, §4

Assay [3] relates to human myeloid leukemia K-562. The assay can be described thus: In vitro cytotoxicity, Calcein AM assay, K-562. In kind it is cell-based. Particulars: 72 hours.
Source text: as §1, §2, §3, §4

The subject of assay [4] is Human T-lymphoblastic leukemia cell line CEM. The assay can be described thus: In vitro cytotoxicity, Calcein AM assay, CEM. In kind it is cell-based. The conditions noted are these: 72 hours.
Source text: as §1, §2, §3, §4

The subject of assay [5] is promyelocytic HL-60 leukemia. The assay is described as follows: In vitro cytotoxicity, Calcein AM assay, HL60. Format: cell-based, human. Particulars: 72 hours.
Source text: as §1, §2, §3, §4

In assay [6] the test system is cytokinin-dependent tobacco callus Nicotiana tabacum L. cv. Wisconsin 38. The assay is described as follows: Tobacco callus bioassay (stimulation of plant cell division). In kind it is cell-based. The conditions noted are these: for concentration with highest activity: increase of fresh callus weight after four weeks, tested 10^−8 M to 10^−4 M; for activity (%) [10^−5 mol · l^−1 C = 100%]: relative activity at the concentration with highest activity, kinetin riboside at 10^−5 mol/l = 100%. The procedure:
Cytokinin-dependent tobacco callus Nicotiana tabacum L. cv. Wisconsin 38 was maintained at 25° C. in darkness on modified MS medium, containing per 1 liter: 4 μmol of nicotinic acid, 2.4 μmol of pyridoxine hydrochloride, 1.2 μmol of thiamine, 26.6 μmol of glycine, 1.37 μmol of glutamine, 1.8 μmol of myo-inositol, 30 g of sucrose, 8 g of agar, 5.37 μmol of NAA and 0.5 μmol of the compound tested. Subcultivation was carried out every three weeks. Fourteen days before the bioassay, the callus tissue was transferred to the media without the compound tested. The biological activity was determined from the increase of the fresh callus weight after four weeks of cultivation. Five replicates were prepared for each concentration of the compound tested and the entire test was repeated twice. From the obtained data, the concentration with the highest activity was selected for each compound tested. Relative activity of the compound at this concentration was calculated (Table 8). The compounds to be tested were dissolved in dimethylsulfoxide (DMSO) and the solution brought up to 10^−3M with distilled water. […] The compounds listed in Table 8 are compared to a “classical cytokinin” kinetin riboside (compound known in the prior art—C=control).

Another assay has as its system β-adrenergic receptors. The assay is described as follows: Isoproterenol-induced cAMP synthesis in rat C6 glioma (anti-inflammatory activity). In kind it is cell-based. The conditions noted are these: for Effect (modulation of isoproterenol-induced cAMP synthesis): added simultaneously with (−)-isoproterenol; for IC50: cellular cAMP by enzyme immunoassay, dose-response curve in duplicate, read-out: I50. As for the experimental part:
Anti-inflammatory activity of several of the 2-substituted 6-benzylaminopurine riboside derivatives of this invention was determined; kinetin riboside was also evaluated as a control. Rat C6 glioma (ATCC No. CCL107) was cultivated in monolayer in serum-free chemically defined medium containing Ham's F10/minimal essential medium (1:1 v/v), 2 mM L-glutamine, 1% (v/v) minimal essential medium vitamins (100×), 1% (v/v) minimal essential medium nonessential amino acids (100×), 100 U/mL penicillin, […], and 30 nM sodium selenite. Incubation was performed at 37° C. in a humidified atmosphere. The assays were performed in the logaritmic growth phase at a density of 2.5×10^5 cells/cm^2.
Intracellular cAMP synthesis was induced by addition of 5 mM (−)-isoproterenol; various amounts of test compounds were added at the same time as the (−)-isoproterenol. After […] incubation at 37° C., the medium was removed and the cellular amount of cAMP was determined using the cAMP-enzyme immunoassay kit from Amersham. The I50 value was determined from a dose-response curve in duplicate. The effect of nine purine analogues was measured after simultaneous addition with isoproterenol.
As P2Y1-like and A2 purinergic receptors, negatively and positively coupled to adenylate cyclase respectively, are present on rat C6 glioma as to be determined if the modulation of the synthesis of cAMP is due to inhibition of the activation of β-adrenergic receptors by isoproterenol are due to activation of purinergic receptors.

Take `COc1cccc(CNc2ncnc3c2ncn3C2OC(CO)C(O)C2O)c1O` (centres unmarked) [2-hydroxy-3-methoxybenzylamino, reference compound]: the GI50 in assay [1] is > 100 µM; in the assay on human osteosarcoma HOS, > 100 µM; in assay [2], > 100 µM; in assay [3], > 100 µM; in assay [4], 40 µM; in assay [5], 9.5 µM.
`COc1ccc(CNc2ncnc3c2ncn3[C@@H]2O[C@H](CO)[C@@H](O)[C@H]2O)c(O)c1` [2-hydroxy-4-methoxybenzylamino, reference compound]: the GI50 in assay [1] was > 100 µM; in the assay on human osteosarcoma HOS, > 100 µM; in assay [2] it was 20 µM; in assay [3], 28 µM; in assay [4] it was 0.3 µM; in assay [5], 0.15 µM.
Consider `OCC1OC(n2cnc3c(NCc4cc(Cl)ccc4O)ncnc32)C(O)C1O` (centres unmarked) [2-hydroxy-5-chlorobenzylamino, reference compound], for which the GI50 is > 100 µM in assay [1]; > 100 µM in the assay with human osteosarcoma HOS; 32 µM in assay [2]; 36 µM in assay [3]; 2.4 µM in assay [4]; 1.6 µM in assay [5].
On to `OC[C@H]1O[C@@H](n2cnc3c(NCc4cc(F)ccc4O)ncnc32)[C@H](O)[C@@H]1O` [2-hydroxy-5-fluorobenzylamino, reference compound], for which the 50% growth inhibitory concentration (GI50) in assay [1] was > 100 µM; in the assay with human osteosarcoma HOS, > 100 µM; in assay [2], > 100 µM; in assay [3], > 100 µM; in assay [4], 52 µM; in assay [5], 24 µM.
For `Cc1ccc(O)c(CNc2ncnc3c2ncn3C2OC(CO)C(O)C2O)c1` (centres unmarked) [2-hydroxy-5-methylbenzylamino, reference compound], the GI50 in assay [1] was > 100 µM; with human osteosarcoma HOS, > 100 µM; in assay [2], 6.9 µM; in assay [3], 18 µM; in assay [4] it was 0.9 µM; in assay [5], 10 µM.
Regarding `COc1c(O)cccc1CNc1ncnc2c1ncn2[C@@H]1O[C@H](CO)[C@@H](O)[C@H]1O` [2-methoxy-3-hydroxybenzylamino, reference compound], the GI50 is > 100 µM in assay [1]; > 100 µM with human osteosarcoma HOS; > 100 µM in assay [2]; 16.5 µM in assay [3]; 1.9 µM in assay [4]; 10 µM in assay [5].
For `OC[C@H]1O[C@@H](n2cnc3c(NCc4ccco4)ncnc32)[C@H](O)[C@@H]1O` [C, kinetin riboside, reference compound], in assay [6], the “concentration with highest activity” value is 10^−5 mol · l^−1. Besides, the “activity (%) [10^−5 mol · l^−1 C = 100%]” value in assay [6] came to 100%. For the same compound, the “Effect (modulation of isoproterenol-induced cAMP synthesis)” value (from here on “Effect”) in the assay on β-adrenergic receptors is “inactive”; with β-adrenergic receptors (listed as control), “none”.
`COc1ccc(CNc2nc(Cl)nc3c2ncn3C2OC(CO)C(O)C2O)c(O)c1` (centres unmarked) [Compound 11]: the GI50 (in assay [1]; with human osteosarcoma HOS; in assay [2]; in assay [3]; in assay [4]; in assay [5]) was > 100 µM throughout.
For `Cc1cccc(CNc2nc(Cl)nc3c2ncn3C2OC(CO)C(O)C2O)c1O` (centres unmarked) [Compound 13], the GI50 (in assay [1]; in the assay with human osteosarcoma HOS; in assay [2]; in assay [3]; in assay [4]; in assay [5]) was > 100 µM throughout. In the assay on β-adrenergic receptors, the “Effect” value was “inhibition”. Moreover, the IC50 on β-adrenergic receptors stood at 18.7 ± 4 µM.
Take `COc1c(O)cccc1CNc1nc(Cl)nc2c1ncn2C1OC(CO)C(O)C1O` (centres unmarked) [Compound 21]: the GI50 (in assay [1]; in the assay with human osteosarcoma HOS; in assay [2]; in assay [3]; in assay [4]; in assay [5]) was > 100 µM each time.
Take `OCC1OC(n2cnc3c(NCc4ccc(F)cc4F)nc(Cl)nc32)C(O)C1O` (centres unmarked) [Compound 32]: in assay [6], the “concentration with highest activity” value is 10^−6 mol · l^−1 and the “activity (%) [10^−5 mol · l^−1 C = 100%]” value is 109.7 (±12) %.
The matching figures for `OCC1OC(n2cnc3c(NCc4c(F)ccc(F)c4F)nc(Cl)nc32)C(O)C1O` (centres unmarked) [Compound 33]: 10^−6 mol · l^−1 and 105.1 (±2) %.
On to `COc1cccc(CNc2nc(F)nc3c2ncn3C2OC(CO)C(O)C2O)c1O` (centres unmarked) [Compound 40], for which, in the assay with β-adrenergic receptors, the “Effect” value is given as “inhibition” and the IC50 worked out at 4.2 ± 2 µM.
As for `OCC1OC(n2cnc3c(NCc4cc(Cl)ccc4O)nc(F)nc32)C(O)C1O` (centres unmarked) [Compound 49], in assay [6], the “concentration with highest activity” value is 10^−6 mol · l^−1 and the “activity (%) [10^−5 mol · l^−1 C = 100%]” value was 112 (±8) %. In the assay with β-adrenergic receptors, the “Effect” value was “inhibition” and the IC50 is 10.8 ± 3 µM.
For `OCC1OC(n2cnc3c(NCc4cc(F)ccc4O)nc(F)nc32)C(O)C1O` (centres unmarked) [Compound 50], in the assay on β-adrenergic receptors, the “Effect” value was “inhibition” and the IC50 came out at 13.6 ± 3 µM.
With `CSc1nc(NCc2ccc(F)cc2F)c2ncn(C3OC(CO)C(O)C3O)c2n1` (centres unmarked) [Compound 97], in assay [6], the “concentration with highest activity” value is reported as 10^−6 mol · l^−1 and the “activity (%) [10^−5 mol · l^−1 C = 100%]” value was 107 (±8) %.
